From ChEMBL document CHEMBL3885881, “DrugMatrix”

Species: Rattus norvegicus
Assay: DrugMatrix - Regimen: Daily Repeat
Type: toxicity, organism-based, Sprague-Dawley
Design: regimen Daily Repeat, gender Male, age 6-8 weeks
Conditions: in vivo, po, route oral GAVAGE, vehicle .5 % CMC; for ABSOLUTE BASOPHIL / ABSOLUTE EOSINOPHIL / ABSOLUTE LYMPHOCYTE / ABSOLUTE MONOCYTE / ABSOLUTE SEGMENTED NEUTROPHIL / BASOPHIL / EOSINOPHIL / ERYTHROCYTE COUNT / HEMATOCRIT / HEMOGLOBIN / LEUKOCYTE COUNT / LYMPHOCYTE / MEAN CORPUSCULAR HEMOGLOBIN / MEAN CORPUSCULAR HEMOGLOBIN CONCENTRATION / MEAN CORPUSCULAR VOLUME / MONOCYTE / NEUTROPHIL / NUCLEATED RED BLOOD CELLS / PLATELET COUNT: tissue Blood; for ALANINE AMINOTRANSFERASE / ALBUMIN / ALKALINE PHOSPHATASE / ASPARTATE AMINOTRANSFERASE / BLOOD UREA NITROGEN / CARBON DIOXIDE / CHLORIDE / CHOLESTEROL / CREATINE PHOSPHOKINASE / CREATININE / GLUCOSE / LACTATE DEHYDROGENASE / LIPASE / PHOSPHORUS / POTASSIUM / SODIUM / TOTAL BILIRUBIN / TOTAL PROTEIN / URIC ACID: tissue Plasma
[1] = 385.5 mg/kg, 120 h, dose level Low, time 5 day
[2] = 3855 mg/kg, 72 h, dose level High, time 3 day
[3] = 3855 mg/kg, 120 h, dose level High, time 5 day

SMILES: Cn1c(=O)c2c(ncn2CC(O)CO)n(C)c1=O (centres undefined) [DYPHYLLINE]
- ABSOLUTE BASOPHIL [1]: 0 CELLS/uL
- ABSOLUTE EOSINOPHIL [1]: 0 CELLS/uL
- ABSOLUTE LYMPHOCYTE [1]: 14849.33 CELLS/uL
- ABSOLUTE MONOCYTE [1]: 268.33 CELLS/uL
- ABSOLUTE SEGMENTED NEUTROPHIL [1]: 1249 CELLS/uL
- BASOPHIL [1]: 0%
- EOSINOPHIL [1]: 0%
- ERYTHROCYTE COUNT [1]: 5.2 x10E6/uL
- HEMATOCRIT [1]: 34.47%
- HEMOGLOBIN [1]: 13.7 G/DL
- LEUKOCYTE COUNT [1]: 16.37 x10E3/uL
- LYMPHOCYTE [1]: 90.67%
- MEAN CORPUSCULAR HEMOGLOBIN [1]: 26.37 pg
- MEAN CORPUSCULAR HEMOGLOBIN CONCENTRATION [1]: 39.77 G/DL
- MEAN CORPUSCULAR VOLUME [1]: 66.3 fL
- MONOCYTE [1]: 1.67%
- NEUTROPHIL [1]: 7.67%
- NUCLEATED RED BLOOD CELLS [1]: 0.33 /100WBC
- PLATELET COUNT [1]: 1326 x10E3/uL
- ALANINE AMINOTRANSFERASE [1]: 46.67 u/L
- ALBUMIN [1]: 4.3 G/DL
- ALKALINE PHOSPHATASE [1]: 287 u/L
- ASPARTATE AMINOTRANSFERASE [1]: 70.67 u/L
- BLOOD UREA NITROGEN [1]: 18.67 mg/dL
- CARBON DIOXIDE [1]: 25.33 mmol/L
- CHLORIDE [1]: 102.67 MEQ/L
- CHOLESTEROL [1]: 75.33 mg/dL
- CREATINE PHOSPHOKINASE [1]: 172.67 u/L
- CREATININE [1]: 0.18 mg/dL
- GLUCOSE [1]: 155 mg/dL
- LACTATE DEHYDROGENASE [1]: 103.33 u/L
- LIPASE [1]: 10 u/L
- PHOSPHORUS [1]: 13.33 mg/dL
- POTASSIUM [1]: 6.61 MEQ/L
- SODIUM [1]: 146.27 MEQ/L
- TOTAL BILIRUBIN [1]: 0.2 mg/dL
- TOTAL PROTEIN [1]: 5.93 G/DL
- URIC ACID [1]: 1.33 mg/dL
- ABSOLUTE BASOPHIL [2]: 0 CELLS/uL
- ABSOLUTE EOSINOPHIL [2]: 0 CELLS/uL
- ABSOLUTE LYMPHOCYTE [2]: 16214.67 CELLS/uL
- ABSOLUTE MONOCYTE [2]: 399.33 CELLS/uL
- ABSOLUTE SEGMENTED NEUTROPHIL [2]: 2086 CELLS/uL
- BASOPHIL [2]: 0%
- EOSINOPHIL [2]: 0%
- ERYTHROCYTE COUNT [2]: 5.33 x10E6/uL
- HEMATOCRIT [2]: 33.37%
- HEMOGLOBIN [2]: 13.57 G/DL
- LEUKOCYTE COUNT [2]: 18.7 x10E3/uL
- LYMPHOCYTE [2]: 87%
- MEAN CORPUSCULAR HEMOGLOBIN [2]: 25.5 pg
- MEAN CORPUSCULAR HEMOGLOBIN CONCENTRATION [2]: 40.67 G/DL
- MEAN CORPUSCULAR VOLUME [2]: 62.63 fL
- MONOCYTE [2]: 2%
- NEUTROPHIL [2]: 11%
- NUCLEATED RED BLOOD CELLS [2]: 0 /100WBC
- PLATELET COUNT [2]: 1235.67 x10E3/uL
- ALANINE AMINOTRANSFERASE [2]: 63.67 u/L
- ALBUMIN [2]: 4.37 G/DL
- ALKALINE PHOSPHATASE [2]: 376 u/L
- ASPARTATE AMINOTRANSFERASE [2]: 102 u/L
- BLOOD UREA NITROGEN [2]: 14 mg/dL
- CARBON DIOXIDE [2]: 25.67 mmol/L
- CHLORIDE [2]: 103.33 MEQ/L
- CHOLESTEROL [2]: 72 mg/dL
- CREATINE PHOSPHOKINASE [2]: 224.33 u/L
- CREATININE [2]: 0.18 mg/dL
- GLUCOSE [2]: 169.33 mg/dL
- LACTATE DEHYDROGENASE [2]: 157.67 u/L
- LIPASE [2]: 10 u/L
- PHOSPHORUS [2]: 11.3 mg/dL
- POTASSIUM [2]: 6.13 MEQ/L
- SODIUM [2]: 145.4 MEQ/L
- TOTAL BILIRUBIN [2]: 0.17 mg/dL
- TOTAL PROTEIN [2]: 5.77 G/DL
- URIC ACID [2]: 1.27 mg/dL
- ABSOLUTE BASOPHIL [3]: 0 CELLS/uL
- ABSOLUTE EOSINOPHIL [3]: 169.33 CELLS/uL
- ABSOLUTE LYMPHOCYTE [3]: 15268 CELLS/uL
- ABSOLUTE MONOCYTE [3]: 115.33 CELLS/uL
- ABSOLUTE SEGMENTED NEUTROPHIL [3]: 1780.67 CELLS/uL
- BASOPHIL [3]: 0%
- EOSINOPHIL [3]: 1%
- ERYTHROCYTE COUNT [3]: 5.34 x10E6/uL
- HEMATOCRIT [3]: 34.57%
- HEMOGLOBIN [3]: 13.7 G/DL
- LEUKOCYTE COUNT [3]: 17.33 x10E3/uL
- LYMPHOCYTE [3]: 88%
- MEAN CORPUSCULAR HEMOGLOBIN [3]: 25.67 pg
- MEAN CORPUSCULAR HEMOGLOBIN CONCENTRATION [3]: 39.63 G/DL
- MEAN CORPUSCULAR VOLUME [3]: 64.77 fL
- MONOCYTE [3]: 0.67%
- NEUTROPHIL [3]: 10.33%
- NUCLEATED RED BLOOD CELLS [3]: 0.33 /100WBC
- PLATELET COUNT [3]: 1356 x10E3/uL
- ALANINE AMINOTRANSFERASE [3]: 67.33 u/L
- ALBUMIN [3]: 4.23 G/DL
- ALKALINE PHOSPHATASE [3]: 246 u/L
- ASPARTATE AMINOTRANSFERASE [3]: 85.67 u/L
- BLOOD UREA NITROGEN [3]: 17 mg/dL
- CARBON DIOXIDE [3]: 26.33 mmol/L
- CHLORIDE [3]: 102.33 MEQ/L
- CHOLESTEROL [3]: 58.67 mg/dL
- CREATINE PHOSPHOKINASE [3]: 184.33 u/L
- CREATININE [3]: 0.16 mg/dL
- GLUCOSE [3]: 150.67 mg/dL
- LACTATE DEHYDROGENASE [3]: 98.67 u/L
- LIPASE [3]: 10 u/L
- PHOSPHORUS [3]: 11.47 mg/dL
- POTASSIUM [3]: 6.42 MEQ/L
- SODIUM [3]: 144.77 MEQ/L
- TOTAL BILIRUBIN [3]: 0.2 mg/dL
- TOTAL PROTEIN [3]: 5.77 G/DL
- URIC ACID [3]: 1 mg/dL
